Tested on: CTLs from Cas9 control and NR3C1 KO groups
Assay: Annexin V apoptosis assay with dexamethasone
Assay type: cell-based, human
Conditions: 200 µM, 72 hours
Experimental: Annexin V apoptosis assay was performed to evaluate the effect of dexamethasone on the viability of CTLs from Cas9 control and NR3C1 KO groups. CTLs from both groups were treated with 200 µM dexamethasone (Sigma) for 72 hours. Cells were then collected, washed with annexin V buffer, and stained with annexin V (V500; BD Biosciences) and live/dead viability dye (efluor 660; Invitrogen) in addition to CD3 APC Cy7 (Biolegend, Clone HIT3A), CD4 APC (E Biosciences, Clone SK3), and CD8 PerCP Cy5.5 (Biolegend, Clone SK1). The proportion of apoptotic (positive for annexin V) and dead CTLs (positive for live/dead stain) was determined by flow cytometry.

C[C@@H]1C[C@H]2[C@@H]3CCC4=CC(=O)C=C[C@]4(C)[C@@]3(F)[C@@H](O)C[C@]2(C)[C@@]1(O)C(=O)CO [Dex, dexamethasone]
viability of control Cas9 COVID-19 CTLs: absence of viable cells

— patent publication US20230210902A1, “SARS-COV-2-SPECIFIC T CELLS” (priority 2020, published 2023)
